# Assay results as given in ChEMBL document CHEMBL3244391, “Antiviral activity of aliphatic nucleoside analogues: structure-function relationship” (1979).
# System: Vesicular stomatitis virus
# Test: Antiviral activity against Vesicular stomatitis virus infected in rabbit primary kidney cells assessed as inhibition of viral cytopathogenicity after 2 days
# Format: functional
row,SMILES,MID [µg/mL]
1,C[C@@H](O)[C@@H](O)Cn1cnc2c(N)ncnc21 (racemic),100
2,O=c1[nH]c(=O)n([C@H]2C[C@H](O)[C@@H](CO)O2)cc1I [IDOXURIDINE],>400
3,Nc1nc(N)c2ncn(CC(O)CO)c2n1 (racemic),>400
4,O=c1cnn(CC(O)CO)c(=O)[nH]1 (racemic),>400
5,O=c1ccn(C[C@@H](O)[C@H](O)CO)c(=O)[nH]1,400
6,Nc1ncnc2c1ncn2C[C@H](O)[C@@H](O)CO,>400
7,Nc1ncnc2c1nc(O)n2CC(O)CO (racemic),>400
8,CCCCCCCCCCCCCCCC(=O)OCC(O)Cn1cnc2c(N)ncnc21 (racemic),>400
9,O=c1ccn(CC(O)C(O)CO)c(=O)[nH]1 (racemic),>400
10,Nc1ccn(CC(O)CO)c(=O)n1 (racemic),400
11,O=c1ccn(CCC(O)CCO)c(=O)[nH]1 (racemic),>400
12,O=c1ccn(CC[C@H](O)CO)c(=O)[nH]1,>400
13,Nc1ncnc2c1ncn2[C@@H]1O[C@H](CO)[C@@H](O)[C@@H]1O [VIDARABINE],20
14,CC(C)(C)C(=O)OCC(Cn1cnc2c(N)ncnc21)OC(=O)C(C)(C)C (racemic),>400
15,Nc1ncnc2c1ncn2C[C@@H](O)[C@H](O)CO,300
16,COCC(Cn1cnc2c(N)ncnc21)OC (racemic),300
17,Nc1ncnc2c1ncn2C[C@@H](O)CO,300
18,Cc1c[nH]c(=O)n(C[C@H](O)CO)c1=O,>400
19,Nc1ncnc2c1ncn2C[C@H](O)CO [(S)-DHPA],7

row,SMILES,MID [µg/mL]
1,CC(O)Cn1cnc2c(N)ncnc21 (racemic),>400
2,Nc1ccn([C@@H]2O[C@H](CO)[C@@H](O)[C@@H]2O)c(=O)n1 [CYTARABINE],10
3,Nc1nc2c(ncn2CC(O)CO)c(=O)[nH]1 (racemic),>400
4,CNc1ncnc2c1ncn2CC(O)CO (racemic),>400
5,[N-]=[N+]=NCC(Cn1cnc2c(N)ncnc21)N=[N+]=[N-] (racemic),400
6,Nc1ncnc2c1ncn2CC[C@H](O)CO,100
7,Nc1ncnc2c1ncn2CCC(O)CCO (racemic),>400
8,NCC(O)Cn1cnc2c(N)ncnc21 (racemic),200
9,Nc1ncnc2c1nc(S)n2CC(O)CO (racemic),>400
10,Nc1ncnc2c1ncn2C[C@H](O)[C@H](O)CO,100
11,[N-]=[N+]=NCC(O)Cn1cnc2c(N)ncnc21 (racemic),200
12,Nc1ncnc2c1ncn2CC(N)CO (racemic),100
13,Cc1cn(C[C@H](O)CO)c(=O)[nH]c1=O,>400
14,Nc1ncnc2c1ncn2CC(O)C(O)CO (racemic),200
15,CN(C)c1ncnc2c1ncn2CC(O)CO (racemic),>400
16,Nc1ncnc2c1ncn2CC(O)CO (racemic),20
17,NCCn1cnc2c(N)ncnc21,>400
18,COC(CO)Cn1cnc2c(N)ncnc21 (racemic),300
19,Nc1ncnc2c1ncn2CCCO,200

row,SMILES,MID [µg/mL]
1,O=c1ccn(C[C@H](O)CO)c(=O)[nH]1,400
2,Nc1c2ncn(CC(O)CO)c2nc[n+]1[O-] (racemic),>400
3,Nc1ncnc2c1ncn2C[C@@H](O)[C@@H](O)CO,300
4,CC(C)(C)C(=O)OCC(O)Cn1cnc2c(N)ncnc21 (racemic),>400
5,Nc1ncnc2c1nc(Br)n2CC(O)CO (racemic),>200
6,NCC(N)Cn1cnc2c(N)ncnc21 (racemic),>400
7,COCC(O)Cn1cnc2c(N)ncnc21 (racemic),>400
8,CC(=O)OC[C@H](Cn1cnc2c(N)ncnc21)OC(C)=O,300
9,CSc1nc(N)c2ncn(CC(O)CO)c2n1 (racemic),>400
10,Nc1nc(O)c2c(ncn2CC(O)CO)n1 (racemic),>400
11,Cc1cn(C[C@@H](O)CO)c(=O)[nH]c1=O,>400
12,O=c1ccn(C[C@H](O)[C@H](O)CO)c(=O)[nH]1 (racemic),>400
13,Nc1ncnc2c1ncn2CCC(O)CO (racemic),200
14,OCC(O)Cn1cnc2c(S)ncnc21 (racemic),>400
15,Nc1ncnc2c1ncn2CCO,>400
16,CCC(=O)OCC(Cn1cnc2c(N)ncnc21)OC(=O)CC (racemic),300
17,OC[C@@H](O)Cn1cnc2c(O)ncnc21,>400
18,Nc1ncnc2c1ncn2C(CO)CO,300
